{"source": "patent US20220144775A1", "about": "“HYDRAZIDE COMPOUND AND KINASE INHIBITOR” (NISSAN CHEMICAL CORPORATION, priority 2019, published 2022)", "system": "colon organoid", "assay": "Mouse colon organoid culture", "format": "cell-based", "settings": "day 21 of culture, 10 μM", "experimental": "7-Week-old male C57BL/6N mice were purchased from CHARLES RIVER LABORATORIES JAPAN, INC. After the acclimation period, the small intestine and colon were isolated under anesthesia. Crypts were collected from the excised small intestine and colon according to the protocol of IntestiCult (trade mark) Organoid Growth Medium. To be specific, the inside of the intestine was washed with 1 mL of cold PBS, then incised vertically, and washed 3 times with 1 mL of cold PBS. The intestine was transferred to a 10 cm petri dish filled with cold PBS, washed thoroughly again, and transferred to a 50 mL tube containing 15 mL of cold PBS while cutting into 2 mm pieces. […] The number of crypts contained in 10 μL of the suspension was counted under a microscope to determine the concentration, and the mixture was dispensed into a 15 mL tube at 800 crypts/tube, and centrifuged at 4° C., 200 g×5 min. […] Organoids were image-analyzed over time by Cell3iMager duos (SCREEN Holdings Co., Ltd.). For image analysis, the number of crypts having a diameter of 30-200 μm was counted as the number of seeded crypts on the first day of culture, and then those grown to 70 μm or more over time were counted as organoids, and the organoid formation rate from the crypts was calculated. At that time, the average diameter of the organoids measured at the same time was calculated. […]", "data": [{"smiles": "CC/C(=N\\NC(=O)C(C)Nc1cncc(F)c1)c1ccc(O)c(C)c1O", "note": "(centres unmarked) [A-007]", "values": [{"measurement": "formation rate (%)", "setting": "DMSO 14", "value": 49, "unit": "%"}, {"measurement": "average diameter (μm)", "setting": "DMSO 207", "value": 251, "unit": "μm"}]}]}
